From US11932645B2, “Substituted pyrazolo[1,5-a]pyrimidines and their use in the treatment of medical disorders” (Bial—R&D Investments, S.A., priority 2014, dated 2024)

Target: T1, glucocerebrosidase (Gcase) (Homo sapiens, UniProt P04062)
T1 sequence (P04062 40-536): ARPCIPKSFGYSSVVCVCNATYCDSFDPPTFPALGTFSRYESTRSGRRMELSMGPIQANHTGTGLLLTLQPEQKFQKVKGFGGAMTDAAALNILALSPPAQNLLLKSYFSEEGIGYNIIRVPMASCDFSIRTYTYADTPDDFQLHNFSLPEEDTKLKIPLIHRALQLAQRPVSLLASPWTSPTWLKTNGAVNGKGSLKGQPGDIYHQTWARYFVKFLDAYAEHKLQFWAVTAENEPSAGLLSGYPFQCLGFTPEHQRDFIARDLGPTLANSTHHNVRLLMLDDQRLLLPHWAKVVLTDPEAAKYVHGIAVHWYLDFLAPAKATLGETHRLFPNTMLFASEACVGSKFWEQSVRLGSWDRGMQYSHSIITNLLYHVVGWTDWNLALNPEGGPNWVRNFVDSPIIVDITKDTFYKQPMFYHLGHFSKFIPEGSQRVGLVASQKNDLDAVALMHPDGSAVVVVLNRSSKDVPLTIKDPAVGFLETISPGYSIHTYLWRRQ
Experiment: Glucocerebrosidase (Gcase) activation assay, 4-methylumbelliferyl-beta-D-glucopyranoside substrate, with saposin C
Format: biochemical
Details: 10 nM GCase, 100 nM saposin C, pH 4.7
Description: The ability of exemplary compounds to activate glucocerebrosidase (Gcase) was measured.
A 484 μL aliquot of a 1.0 mg/mL solution of phosphatidylserine (PS) (Sigma P7769) in chloroform was evaporated under a stream of nitrogen for 1 hour. The lipid film was dissolved over 4 minutes of vigorous vortexing in 40 mL of 176 mM K2HPO4/50 mM citric acid (pH 4.7) containing 7.5 μL of triton X-100, resulting in a mixed micellar preparation with a composition of 0.32 mM triton and 0.37 mol % PS. 4-Methylumbelliferyl-beta-D-glucopyranoside (ACROS-337025000) was dissolved in the micellar solution to a final concentration of 2 mM for use as the reaction substrate.
Test compounds were diluted to the desired concentrations with dimethylsulfoxide (DMSO) from 10 mM stocks, and 0.41 μL of the DMSO compound mixture was added to 100 μL of micellar solution containing 10 nM GCase and 100 nM saposin C (Enzo ALX-201-262-C050). Pre-incubation was allowed to occur for 30 minutes at room temperature, after which the reaction was initiated by combining 25 μL of substrate solution with 25 μL of compound/GCase/saposin mixture. The reaction proceeded for 15 minutes at room temperature and was stopped by adding 150 μL of 1M glycine, pH 12.5. The endpoint of the reaction was monitored by measuring fluorescence intensity (excitation: 365 nm; emission: 440 nm) on a SpectraMax i3 instrument (Molecular Devices). Test compounds were screened at 1.0 and 0.1 μM final concentration, and subsequent 8-point dose response curves were obtained using 3-fold dilutions from a maximum final concentration of 5 μM.
For experiments in which the test compound was used at a concentration of 1.0 μM, the symbol “+” indicates less than 30% Gcase activation; the symbol “++” indicates Gcase activation in the range of 30% up to 60%; and the symbol “+++” indicates Gcase activation greater than 60%. For experiments in which the test compound was used at a concentration of 0.1 μM, the symbol “*” indicates less than 10% Gcase activation; the symbol “**” indicates Gcase activation in the range of 10% up to 20%; and the symbol “***” indicates greater than 20% Gcase activation.

SMILES	Percent Gcase Activation 0.1 μM Test Compound	Percent Gcase Activation 1 μM Test Compound
C#Cc1ccc(NC(=O)c2cnn3c(C)cc(C)nc23)nc1 [III-1]	* (less than 10% Gcase activation)	++ (Gcase activation in the range of 30% up to 60%)
C#Cc1ccc(NC(=O)c2cnn3c(C)cc(C)nc23)cn1 [III-2]	* (less than 10% Gcase activation)	+ (less than 30% Gcase activation)
Cc1cc(C)n2ncc(C(=O)Nc3ccc(-c4ccccc4)cc3)c2n1 [III-3]	*** (greater than 20% Gcase activation)	++ (Gcase activation in the range of 30% up to 60%)
COCC#Cc1ccc(NC(=O)c2cnn3c(C)cc(C)nc23)cc1 [III-4]	** (Gcase activation in the range of 10% up to 20%)	+++ (Gcase activation greater than 60%)
Cc1cc(C)n2ncc(C(=O)Nc3ccc(Oc4ccccc4)cc3)c2n1 [III-5]	*** (greater than 20% Gcase activation)	++ (Gcase activation in the range of 30% up to 60%)
Cc1cc(C)n2ncc(C(=O)Nc3ccc(-n4ccnc4)cc3)c2n1 [III-6]	* (less than 10% Gcase activation)	+ (less than 30% Gcase activation)
Cc1cc(C)n2ncc(C(=O)Nc3ccc(-c4nccs4)cc3)c2n1 [III-7]	** (Gcase activation in the range of 10% up to 20%)	+++ (Gcase activation greater than 60%)
C#Cc1ccc(NC(=O)c2cnn3c(C)cc(C)nc23)c(OC)c1 [III-8]	** (Gcase activation in the range of 10% up to 20%)	++ (Gcase activation in the range of 30% up to 60%)
Cc1cc(C)n2ncc(C(=O)Nc3ccc(-c4ccon4)cc3)c2n1 [III-9]	* (less than 10% Gcase activation)	+++ (Gcase activation greater than 60%)
Cc1cc(C)n2ncc(C(=O)Nc3ccc(-c4cocn4)cc3)c2n1 [III-10]	** (Gcase activation in the range of 10% up to 20%)	+++ (Gcase activation greater than 60%)
Cc1cc(C)n2ncc(C(=O)Nc3ccc(-c4ncco4)cc3)c2n1 [III-11]	** (Gcase activation in the range of 10% up to 20%)	+++ (Gcase activation greater than 60%)
Cc1cc(C)n2ncc(C(=O)Nc3cc(-c4ccccc4)on3)c2n1 [III-12]	* (less than 10% Gcase activation)	+ (less than 30% Gcase activation)
C#CC1CCC(NC(=O)c2cnn3c(C)cc(C)nc23)CC1 (stereo not drawn) [III-13]	* (less than 10% Gcase activation)	+ (less than 30% Gcase activation)
C#C[C@H]1CC[C@H](NC(=O)c2cnn3c(C)cc(C)nc23)CC1 [III-14]	* (less than 10% Gcase activation)	+ (less than 30% Gcase activation)
C#C[C@H]1CC[C@@H](NC(=O)c2cnn3c(C)cc(C)nc23)CC1 [III-15]	* (less than 10% Gcase activation)	+ (less than 30% Gcase activation)
Cc1cc(C)n2ncc(C(=O)Nc3ccc(-c4cnsc4)cc3)c2n1 [III-16]	** (Gcase activation in the range of 10% up to 20%)	+++ (Gcase activation greater than 60%)
Cc1cc(C)n2ncc(C(=O)Nc3ccc(-c4cnoc4)cc3)c2n1 [III-17]	* (less than 10% Gcase activation)	+ (less than 30% Gcase activation)
Cc1cc(C)n2ncc(C(=O)Nc3cc(C4(C(F)(F)F)CC4)on3)c2n1 [III-18]	* (less than 10% Gcase activation)	+ (less than 30% Gcase activation)
Cc1cc(C)n2ncc(C(=O)Nc3ccc(-c4cocn4)nc3)c2n1 [III-19]	* (less than 10% Gcase activation)	+ (less than 30% Gcase activation)
Cc1cc(C)n2ncc(C(=O)Nc3ccc(-c4cccs4)nc3)c2n1 [III-20]	*** (greater than 20% Gcase activation)	+++ (Gcase activation greater than 60%)
Cc1cc(C)n2ncc(C(=O)Nc3ccc(-c4ccncc4)nc3)c2n1 [III-21]	* (less than 10% Gcase activation)	+ (less than 30% Gcase activation)
Cc1cc(C)n2ncc(C(=O)Nc3ccc(-c4ccco4)nc3)c2n1 [III-22]	* (less than 10% Gcase activation)	++ (Gcase activation in the range of 30% up to 60%)
Cc1cc(C)n2ncc(C(=O)Nc3ccc(-c4cscn4)cc3)c2n1 [III-27]	** (Gcase activation in the range of 10% up to 20%)	+++ (Gcase activation greater than 60%)
CCCCCOc1ccc(NC(=O)c2cnn3c(C)cc(C)nc23)cc1 [III-32]	** (Gcase activation in the range of 10% up to 20%)	+++ (Gcase activation greater than 60%)

Second part, the compound after the results:

Percent Gcase Activation 0.1 μM Test Compound	Percent Gcase Activation 1 μM Test Compound	SMILES
* (less than 10% Gcase activation)	+ (less than 30% Gcase activation)	Cc1cc(C)n2ncc(C(=O)Nc3ccc(-c4cnn(C)c4)nc3)c2n1 [III-23]
* (less than 10% Gcase activation)	+ (less than 30% Gcase activation)	Cc1cc(C)n2ncc(CNc3ccc(-c4cocn4)nc3)c2n1 [III-24]
* (less than 10% Gcase activation)	+ (less than 30% Gcase activation)	Cc1ccn2ncc(CNc3ccc(-c4cocn4)cc3)c2n1 [III-25]
* (less than 10% Gcase activation)	+ (less than 30% Gcase activation)	Cc1ccn2ncc(CNc3ccc(-c4ncco4)cc3)c2n1 [III-26]
* (less than 10% Gcase activation)	+ (less than 30% Gcase activation)	Cc1cc(C)n2ncc(C(=O)Nc3nc4ccccc4[nH]3)c2n1 [III-28]
* (less than 10% Gcase activation)	+ (less than 30% Gcase activation)	COCC#Cc1ccc(NCc2cnn3c(C)cc(C)nc23)cc1 [III-29]
* (less than 10% Gcase activation)	+ (less than 30% Gcase activation)	Cc1cc(C)n2ncc(C(=O)Nc3ccc(-c4ncc[nH]4)cc3)c2n1 [III-30]
* (less than 10% Gcase activation)	+ (less than 30% Gcase activation)	Cc1cc(C)n2ncc(C(=O)Nc3ccc(-c4cc[nH]n4)cc3)c2n1 [III-31]
* (less than 10% Gcase activation)	+ (less than 30% Gcase activation)	C#CCOc1ccc(NC(=O)c2cnn3c(C)cc(C)nc23)cc1 [III-33]
* (less than 10% Gcase activation)	+ (less than 30% Gcase activation)	Cc1cc(C)n2ncc(C(=O)Nc3ccc(CCCC(=O)O)cc3)c2n1 [III-34]
* (less than 10% Gcase activation)	+ (less than 30% Gcase activation)	Cc1cc(C)n2ncc(C(=O)Nc3ccc(C(C)O)cc3)c2n1 (stereo not drawn) [III-35]
* (less than 10% Gcase activation)	+ (less than 30% Gcase activation)	Cc1cc(C)n2ncc(C(=O)Nc3ccc(CCC(=O)O)cc3)c2n1 [III-36]
